{
  "source": "patent US8088932B2",
  "about": "“Pentaaryldiamine-containing bismaleimide compound and method of producing the compound” (Industrial Technology Research Institute, priority 2008, dated 2012)",
  "assay": "physchem",
  "conditions": "organic solvent or mixture, thermodynamic from solid",
  "data": [
    {"smiles": "N#Cc1ccc(N(c2ccc(C#N)cc2)c2ccc(N(c3ccc(N4C(=O)C=CC4=O)cc3)c3ccc(N4C(=O)C=CC4=O)cc3)cc2)cc1", "note": "[Compound 6, N,N-bis(4-maleimidophenyl)-N′,N′-bis(4-cyanophenyl)-1,4-phenylenediamine]", "values": [
      {"measurement": "solubility", "setting": "Solubility in CHCl3", "result": "> 1000", "unit": "µg/mL"},
      {"measurement": "solubility", "setting": "Solubility in DMAc", "result": "> 1000", "unit": "µg/mL"},
      {"measurement": "solubility", "setting": "Solubility in DMF", "result": "> 1000", "unit": "µg/mL"},
      {"measurement": "solubility", "setting": "Solubility in DMSO", "result": "> 1000", "unit": "µg/mL"},
      {"measurement": "solubility", "setting": "Solubility in MeOH", "result": "< 1000", "unit": "µg/mL"},
      {"measurement": "solubility", "setting": "Solubility in NMP", "result": "> 1000", "unit": "µg/mL"},
      {"measurement": "solubility", "setting": "Solubility in THF", "result": "> 1000", "unit": "µg/mL"},
      {"measurement": "solubility", "setting": "Solubility in m-Cresol", "result": "> 1000", "unit": "µg/mL"}
    ]}
  ]
}
